Test results: patent EP1803452A1, “ESTER DERIVATIVE AND PHARMACEUTICAL USE THEREOF” (Japan Tobacco, Inc., priority 2004, dated 2006)

Key:
[1] = Metabolic stability test in liver S9; assay type: in vitro ADME; details: pH 7.4, human liver S9 2 mg protein/mL, LC/MS; for remaining at 10 min: unchanged form after 10 minutes at 37°C, read-out: Remaining rate in human liver S9 (%/10min); for remaining at 1 h: unchanged form after 60 minutes at 37°C, read-out: Remaining rate in human liver S9 (%/60min)
How it was run: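 Compound from DMSO solution was incubated at 37°C with human liver S9 (final 2 mg protein/mL) in 100 mM potassium phosphate pH 7.4 with an NADPH-regenerating system for 0, 10 and 60 minutes. Reactions were stopped with acetonitrile/0.1% formic acid. Unchanged compound was measured by LC/MS as remaining rate (%) relative to zero time.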

[2] = Metabolic stability test in plasma; assay type: in vitro ADME, human; details: LC/MS; for remaining at 10 min: unchanged form after 10 minutes at 37°C in human plasma, read-out: Remaining rate in human plasma (%/10min); for remaining at 1 h: unchanged form after 60 minutes at 37°C in human plasma, read-out: Remaining rate in human plasma (%/60min)
How it was run: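 Compound in DMSO spiked into human, mouse or hamster plasma, incubated at 37°C for 0, 10 and 60 minutes, then quenched with acetonitrile/formic acid (final 0.1%). Unchanged compound in supernatant quantified by LC/MS; remaining rate (%) relative to time zero.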

[3] = Stability test in buffer (pH 7.4); assay type: physicochemical; details: phosphate buffer/acetonitrile 7:3, 100 mM potassium phosphate buffer (pH 7.4) and acetonitrile 7:3 (v/v), LC/MS; for remaining at 10 min: 10 minutes at 37°C, read-out: Buf. remaining rate (%/10min); for remaining at 1 h: 60 minutes at 37°C, read-out: Buf. remaining rate (%/60min)
How it was run: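 Compound from DMSO solution incubated at 37°C in 100 mM potassium phosphate buffer/acetonitrile 7:3 (v/v) for 0, 10 and 60 min, then quenched with acetonitrile containing formic acid (final 0.1%). Unchanged compound in supernatant quantified by LC/MS; remaining rate (%) = amount at each time / amount at zero time × 100.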

| SMILES | remaining at 10 min [1] [%] | remaining at 1 h [1] [%] | remaining at 10 min [2] [%] | remaining at 1 h [2] [%] | remaining at 10 min [3] [%] | remaining at 1 h [3] [%] |
| --- | --- | --- | --- | --- | --- | --- |
| CCOc1cc(C(=O)OC)cc(OC)c1OC(=O)CCCc1ccc(NC(=O)c2ccc(C)nc2-c2ccc(C(F)(F)F)cc2)c(C(=O)N(C)C)c1 [Compound 1-49, 4-[4-(3-dimethylcarbamoyl-4-{[6-methyl-2-(4-trifluoromethylphenyl)pyridine-3-carbonyl]amino}phenyl)butyryloxy]-3-ethoxy-5-methoxybenzoic acid methyl ester] | 6 | 1 | 0 | 0 | 100 | 100 |
| COC(=O)c1cc(Br)c(OC(=O)CCCc2ccc(NC(=O)c3ccc(C)nc3-c3ccc(C(F)(F)F)cc3)c(C(=O)N(C)C)c2)c(OC)c1 [Compound 1-50, 3-bromo-4-[4-(3-dimethylcarbamoyl-4-{[6-methyl-2-(4-trifluoromethylphenyl)pyridine-3-carbonyl]amino}phenyl)butyryloxy]-5-methoxybenzoic acid methyl ester] | 7 | 2 | 0 | 0 | 97 | 103 |
| CCc1cc(C(=O)OC)cc(C(=O)OC)c1OC(=O)CCCc1ccc(NC(=O)c2ccc(C)nc2-c2ccc(C(F)(F)F)cc2)c(C(=O)N(C)C)c1 [Compound 1-51, 4-[4-(3-dimethylcarbamoyl-4-([6-methyl-2-(4-trifluoromethylphenyl)pyridine-3-carbonyl]amino}phenyl)butyryloxy]-5-ethylisophthalic acid dimethyl ester] | 8 | 3 | 23 | 0 | 98 | 101 |
| CCOC(=O)c1cc(C)c(OC(=O)CCCc2ccc(NC(=O)c3ccc(C)nc3-c3ccc(C(F)(F)F)cc3)c(C(=O)N(C)C)c2)c(C(=O)OC)c1 [Compound 1-52, 4-[4-(3-dimethylcarbamoyl-4-{[6-methyl-2-(4-trifluoromethylphenyl)pyridine-3-carbonyl]amino}phenyl)butyryloxy]-5-methylisophthalic acid 1-ethyl ester 3-methyl ester] | 13 | 4 | 12 | 0 | 100 | 101 |

The next lines start with the values.

| remaining at 10 min [1] [%] | remaining at 1 h [1] [%] | remaining at 10 min [2] [%] | remaining at 1 h [2] [%] | remaining at 10 min [3] [%] | remaining at 1 h [3] [%] | SMILES |
| --- | --- | --- | --- | --- | --- | --- |
| 5 | 2 | 3 | 3 | 100 | 106 | COC(=O)c1cc(OC)c(OC(=O)CCCc2ccc(NC(=O)c3ccc(C)nc3-c3ccc(C(F)(F)F)cc3)c(C(=O)N(C)C)c2)c(C(=O)OC)c1 [Compound 1-53, 4-[4-(3-dimethylcarbamoyl-4-{[6-methyl-2-(4-trifluoromethylphenyl)pyridine-3-carbonyl]amino}phenyl)butyryloxy]-5-methoxyisophthalic acid dimethyl ester] |
| 21 | 4 | 98 | 93 | 100 | 101 | COC(=O)c1cc(C)c(OC(=O)CCCc2ccc(NC(=O)c3ccccc3-c3ccc(C(F)(F)F)cc3)c(C(=O)N(C)C)c2)c(C)c1 [Compound 1-64, 4-[4-(3-dimethylcarbamoyl-4-{(4'-trifluoromethylbiphenyl-2-carbonyl)amino}phenyl)butyryloxy]-3,5-dimethylbenzoic acid methyl ester] |
| 8 | 0 | 98 | 94 | 104 | 104 | COC(=O)c1cc(C)c(OC(=O)CCCc2ccc(NC(=O)c3ccc(C)nc3-c3ccc(C(F)(F)F)cc3)c(C(=O)N(C)C)c2)c(C)c1 [Compound 1-65, 4-[4-(3-dimethylcarbamoyl-4-{[6-methyl-2-(4-trifluoromethylphenyl)pyridine-3-carbonyl]amino}phenyl)butyryloxy]-3,5-dimethylbenzoic acid methyl ester] |
